# Source: ChEMBL document CHEMBL5625204, “Synthesis and pharmacodynamic evaluation of naphthalene derivatives against influenza A virus in vitro and in vivo” (Eur J Med Chem, 2023)
# Active and inactive are the calls of the source. The calls are words filed in the database; no cut-off is given here.
# How the values were obtained:
# Erythrocyte [1] = experiment: Inhibition of Hemagglutinin2 in Influenza A virus assessed as inhibition of virus-induced hemolysis at 7.81 to 250 uM pretreated with virus for 30 mins followed by chicken RBC addition and measured after 30 mins; format: cell-based; details: dose 7.81-250 µM, time 60.0 min
# Erythrocyte [2] = experiment: Inhibition of Hemagglutinin1 in Influenza A virus assessed as inhibition of virus-induced hemagglutination at 7.81 to 250 uM pretreated with virus for 30 mins followed by chicken RBC addition and measured after 1 hr; format: cell-based; details: dose 7.81-250 µM, time 90.0 min
# Influenza A virus [3] = experiment: Antiviral activity against Influenza A virus H1N1 (A/Weiss/43) infected in MDCK cells assessed as reduction of viral replication treated for 72 hrs after viral adsorption by TCID50 method; format: functional, organism-based
# [4] = Selectivity index, ratio of CC50 for dog MDCK cells to EC50 for antiviral activity against Influenza A virus H1N1 (A/Weiss/43) infected in MDCK cells treated for 72 hrs after viral adsorption; format: toxicity, cell-based; details: read-out: Ratio CC50/EC50
# MDCK = experiment: Cytotoxicity against dog MDCK cells assessed as cell pathological changes at 50 uM by microscopic analysis; format: toxicity, cell-based, Canis lupus familiaris
# Influenza A virus [5] = experiment: Antiviral activity against Influenza A virus H1N1 (A/Weiss/43)-infected in BALB/c mouse assessed as reduction in pulmonary inflammation at 25 to 100 mg/kg/day administered intranasally for 6 days starting from 3 hrs post-viral infection by Hematoxylin-Eosin staining based analysis; format: functional, organism-based; details: dose 25-100 mg/kg/day, route nas, time 6.0 day
# Influenza A virus [6] = experiment: Antiviral activity against Influenza A virus H1N1 (A/Virginia/ATCC2/2009) infected in MDCK cells assessed as reduction of viral replication incubated for 72 hrs by TCID50 method; format: functional, organism-based
# [7] = Selectivity index, ratio of CC50 for dog MDCK cells to EC50 for antiviral activity against Influenza A virus H1N1 (A/Virginia/ATCC2/2009) infected in MDCK cells; format: toxicity, cell-based; details: read-out: Ratio CC50/EC50
# Influenza A virus [8] = experiment: Antiviral activity against Influenza A virus H3N2 (A/California/2004) infected in MDCK cells assessed as reduction of viral replication incubated for 72 hrs by TCID50 method; format: functional, organism-based
# Influenza A virus [9] = experiment: Antiviral activity against Influenza A virus H1N1 (A/Weiss/43)-infected in dog MDCK cells assessed as reduction in oxidative stress by measuring proportion of cells with excessive ROS accumulation at 25 uM treated at 2 hrs post-infection and measured after 36 hrs by DCFH-DA staining based flow cytometry (reference value: 30.6%); format: functional; parameters: scale not given: the % may be the effect or the level left
# [10] = Toxicity in dog MDCK cells assessed as ROS production by measuring proportion of cells with excessive ROS accumulation at 50 uM measured after 36 hrs by DCFH-DA staining based flow cytometry (reference value: 0.094%); format: cell-based, Canis lupus familiaris
# Influenza A virus [11] = experiment: Antiviral activity against Influenza A virus H1N1 infected in dog MDCK cells assessed as decrease in apoptosis by measuring proportion of viable cells at 25 uM measured after 72 hrs by AnnexinV-FITC/PI staining based flow cytometry (reference value: 62.9%); format: functional
# Influenza A virus [12] = experiment: Antiviral activity against Influenza A virus H1N1 infected in dog MDCK cells assessed as decrease in apoptosis by measuring proportion of necrotic cells at 25 uM measured after 72 hrs by AnnexinV-FITC/PI staining based flow cytometry (reference value: 2.47%); format: functional; parameters: scale not given: the % may be the effect or the level left
# Influenza A virus [13] = experiment: Antiviral activity against Influenza A virus H1N1 infected in dog MDCK cells assessed as decrease in apoptosis by measuring proportion of viable cells at 50 uM measured after 72 hrs by AnnexinV-FITC/PI staining based flow cytometry (reference value: 62.9%); format: functional
# [14] = Toxicity in dog MDCK cells assessed as proportion of early apoptotic cells at 50 uM measured after 72 hrs by AnnexinV-FITC/PI staining based flow cytometry (reference value: 4.51%); format: cell-based, Canis lupus familiaris
# [15] = Toxicity in dog MDCK cells assessed as proportion of late apoptotic cells at 50 uM measured after 72 hrs by AnnexinV-FITC/PI staining based flow cytometry (reference value: 3.45%); format: cell-based, Canis lupus familiaris
# Influenza A virus [16] = experiment: Antiviral activity against Influenza A virus H1N1 infected in human A549 cells assessed as decrease in RIG-1 pathway related protein expression by measuring decrease in RIG-1 protein expression at 25 to 50 uM measured after 24 hrs by western blot analysis; format: functional, organism-based; details: dose 25-50 µM
# Influenza A virus [17] = experiment: Antiviral activity against Influenza A virus H1N1 infected in human A549 cells assessed as decrease in RIG-1 pathway related gene expression by measuring decrease in RIG-1 gene expression at 25 to 50 uM measured after 24 hrs by qRT-PCR analysis; format: functional, organism-based; details: dose 25-50 µM
# Influenza A virus [18] = experiment: Antiviral activity against Influenza A virus H1N1 infected in human A549 cells assessed as decrease in RIG-1 pathway related gene expression by measuring decrease in MAVS gene expression at 25 to 50 uM measured after 24 hrs by qRT-PCR analysis; format: functional, organism-based; details: dose 25-50 µM
# Influenza A virus [19] = experiment: Antiviral activity against Influenza A virus H1N1 infected in human A549 cells assessed as decrease in RIG-1 pathway related gene expression by measuring decrease in IRF7 gene expression at 25 to 50 uM measured after 24 hrs by qRT-PCR analysis; format: functional, organism-based; details: dose 25-50 µM
# Influenza A virus [20] = experiment: Antiviral activity against Influenza A virus H1N1 infected in human A549 cells assessed as decrease in apoptosis inducing factor gene expression by measuring decrease in TRAIL gene expression at 25 to 50 uM measured after 24 hrs by qRT-PCR analysis; format: functional, organism-based; details: dose 25-50 µM
# Influenza A virus [21] = experiment: Antiviral activity against Influenza A virus H1N1 infected in human A549 cells assessed as decrease in cytokine gene expression by measuring decrease in IL-6 gene expression at 25 to 50 uM measured after 24 hrs by qRT-PCR analysis; format: functional, organism-based; details: dose 25-50 µM
# Influenza A virus [22] = experiment: Antiviral activity against Influenza A virus H1N1 infected in human A549 cells assessed as decrease in cytokine gene expression by measuring decrease in IP-10 gene expression at 25 to 50 uM measured after 24 hrs by qRT-PCR analysis; format: functional, organism-based; details: dose 25-50 µM
# Influenza A virus [23] = experiment: Antiviral activity against Influenza A virus H1N1 (A/Weiss/43)-infected in BALB/c mouse assessed as improvement in body weight at 25 to 100 mg/kg/day administered intranasally for 6 days starting from 3 hrs post-viral infection; format: functional, organism-based; details: dose 25-100 mg/kg/day, route nas, time 6.0 day
# Influenza A virus [24] = experiment: Antiviral activity against Influenza A virus H1N1 (A/Weiss/43)-infected in BALB/c mouse assessed as reduction in RIG-1 gene expression in lungs at 25 to 100 mg/kg/day administered intranasally for 6 days starting from 3 hrs post-viral infection by qRT-PCR analysis; format: functional, organism-based; details: dose 25-100 mg/kg/day, route nas, time 6.0 day
# Influenza A virus [25] = experiment: Antiviral activity against Influenza A virus H1N1 (A/Weiss/43)-infected in BALB/c mouse assessed as reduction in MyD88 gene expression in lungs at 25 to 100 mg/kg/day administered intranasally for 6 days starting from 3 hrs post-viral infection by qRT-PCR analysis; format: functional, organism-based; details: dose 25-100 mg/kg/day, route nas, time 6.0 day
# Influenza A virus [26] = experiment: Antiviral activity against Influenza A virus H1N1 (A/Weiss/43)-infected in BALB/c mouse assessed as reduction in IL-6 gene expression in lungs at 25 to 100 mg/kg/day administered intranasally for 6 days starting from 3 hrs post-viral infection by qRT-PCR analysis; format: functional, organism-based; details: dose 25-100 mg/kg/day, route nas, time 6.0 day
# Influenza A virus [27] = experiment: Antiviral activity against Influenza A virus H1N1 (A/Weiss/43)-infected in BALB/c mouse assessed as reduction in TNF-alpha gene expression in lungs at 25 to 100 mg/kg/day administered intranasally for 6 days starting from 3 hrs post-viral infection by qRT-PCR analysis; format: functional, organism-based; details: dose 25-100 mg/kg/day, route nas, time 6.0 day
compound,measurement,setting,value
O=[N+]([O-])c1ccc(S(=O)(=O)N(Cc2ccccc2)c2cccc3ccccc23)cc1,inhibition,Erythrocyte [1],inactive
same,inhibition,Erythrocyte [2],inactive
same,EC50,Influenza A virus [3],2.28 µM
same,selectivity ratio at 72 h,[4],> 351
same,Activity,MDCK,Non-Toxic
same,Activity,Influenza A virus [5],Dose-Dependent Effect
same,EC50,Influenza A virus [6],3.34 µM
same,selectivity ratio,[7],> 240
same,EC50,Influenza A virus [8],6.61 µM
same,Activity,Influenza A virus [9],12.3%
same,Activity,[10],1.36%
same,Activity,Influenza A virus [11],95.4%
same,Activity,Influenza A virus [12],0.81%
same,Activity,Influenza A virus [13],95.4%
same,Activity,[14],1.56%
same,Activity,[15],0.71%
same,inhibition,Influenza A virus [16],Active
same,inhibition,Influenza A virus [17],Active
same,inhibition,Influenza A virus [18],Active
same,inhibition,Influenza A virus [19],Active
same,inhibition,Influenza A virus [20],Active
same,inhibition,Influenza A virus [21],Active
same,inhibition,Influenza A virus [22],Active
same,Activity,Influenza A virus [23],Active
same,Activity,Influenza A virus [24],Active
same,Activity,Influenza A virus [25],Active
same,Activity,Influenza A virus [26],Active
same,Activity,Influenza A virus [27],Active
